# PMC11459172 (Proceedings of the National Academy of Sciences of the …, 2024)
# What was measured:
# PARP1 = PARP1 (Homo sapiens, UniProt P09874); assay: In vitro PARP1 autoPARylation reaction with recombinant HTT-HAP40, western blot; type: biochemical; conditions: 10 fmol recombinant PARP1, 2 h at 30 °C, increasing amounts of HTT-HAP40
# [1] = Fluorescence polarization with FAM-labeled 11-mer or 26-mer PAR; type: binding; conditions: 25 nM FAM-labeled PAR, up to 10 μM protein
# PARP1/2 = type: cell-based, human; conditions: TruHD fibroblasts, HD vs control; as Fig 3B; SI Fig S6C
# PARG = PARG (Homo sapiens, UniProt Q86W56); type: cell-based; conditions: TruHD fibroblasts, HD vs control
# PARG, sequence (Q86W56 whole entry): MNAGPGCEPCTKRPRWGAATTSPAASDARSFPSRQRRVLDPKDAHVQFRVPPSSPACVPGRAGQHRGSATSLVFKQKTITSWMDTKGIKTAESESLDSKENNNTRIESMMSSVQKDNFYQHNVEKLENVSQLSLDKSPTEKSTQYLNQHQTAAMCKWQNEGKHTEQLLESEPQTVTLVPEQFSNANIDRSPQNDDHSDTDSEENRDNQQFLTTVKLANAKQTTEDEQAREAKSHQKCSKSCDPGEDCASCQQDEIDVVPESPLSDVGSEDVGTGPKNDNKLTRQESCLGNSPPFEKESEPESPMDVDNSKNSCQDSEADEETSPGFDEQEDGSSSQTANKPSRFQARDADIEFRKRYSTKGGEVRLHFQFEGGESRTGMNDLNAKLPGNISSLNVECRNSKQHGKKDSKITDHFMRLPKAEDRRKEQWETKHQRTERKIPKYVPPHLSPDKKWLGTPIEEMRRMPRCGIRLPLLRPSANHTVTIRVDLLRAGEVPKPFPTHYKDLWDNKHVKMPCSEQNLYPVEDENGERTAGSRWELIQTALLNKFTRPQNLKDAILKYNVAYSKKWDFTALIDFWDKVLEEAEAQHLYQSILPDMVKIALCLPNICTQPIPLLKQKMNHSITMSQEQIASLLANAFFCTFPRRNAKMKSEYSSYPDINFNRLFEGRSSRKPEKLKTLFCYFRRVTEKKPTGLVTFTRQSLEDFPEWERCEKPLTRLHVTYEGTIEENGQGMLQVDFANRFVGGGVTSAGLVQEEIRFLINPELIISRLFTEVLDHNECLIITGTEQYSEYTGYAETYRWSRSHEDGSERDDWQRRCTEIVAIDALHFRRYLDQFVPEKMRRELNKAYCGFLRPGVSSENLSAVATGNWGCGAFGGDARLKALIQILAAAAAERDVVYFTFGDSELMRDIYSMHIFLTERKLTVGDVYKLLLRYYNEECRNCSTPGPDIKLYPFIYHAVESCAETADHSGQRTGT
# PARP1, sequence (P09874 whole entry): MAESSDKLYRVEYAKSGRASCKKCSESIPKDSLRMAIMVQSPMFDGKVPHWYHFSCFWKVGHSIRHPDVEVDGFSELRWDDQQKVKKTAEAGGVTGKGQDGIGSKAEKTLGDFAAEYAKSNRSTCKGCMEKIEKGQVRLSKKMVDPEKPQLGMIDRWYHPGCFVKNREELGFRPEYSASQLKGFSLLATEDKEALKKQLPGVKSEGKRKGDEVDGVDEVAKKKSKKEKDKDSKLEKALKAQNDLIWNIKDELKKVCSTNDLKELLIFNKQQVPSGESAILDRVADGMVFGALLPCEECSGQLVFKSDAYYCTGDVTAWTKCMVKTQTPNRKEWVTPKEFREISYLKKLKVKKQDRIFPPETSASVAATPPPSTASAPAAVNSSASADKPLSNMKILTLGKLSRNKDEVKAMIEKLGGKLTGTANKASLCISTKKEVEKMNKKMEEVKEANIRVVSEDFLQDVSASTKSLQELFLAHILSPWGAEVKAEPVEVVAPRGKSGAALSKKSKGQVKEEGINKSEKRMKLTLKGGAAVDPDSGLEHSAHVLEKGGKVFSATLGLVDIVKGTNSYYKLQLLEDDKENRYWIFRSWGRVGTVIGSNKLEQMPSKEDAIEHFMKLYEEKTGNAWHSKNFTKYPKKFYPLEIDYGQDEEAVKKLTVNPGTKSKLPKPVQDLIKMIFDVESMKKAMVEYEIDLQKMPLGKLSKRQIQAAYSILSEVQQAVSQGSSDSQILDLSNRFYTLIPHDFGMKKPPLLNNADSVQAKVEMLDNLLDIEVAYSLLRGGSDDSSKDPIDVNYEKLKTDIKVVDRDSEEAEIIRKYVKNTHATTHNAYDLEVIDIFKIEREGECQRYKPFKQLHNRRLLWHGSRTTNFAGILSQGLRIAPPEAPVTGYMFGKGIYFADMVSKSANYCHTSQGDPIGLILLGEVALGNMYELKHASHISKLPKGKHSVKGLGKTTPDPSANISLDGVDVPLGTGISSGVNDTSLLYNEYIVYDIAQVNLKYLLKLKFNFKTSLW
compound,measurement,setting,value
"wild-type HTT: purified recombinant wild-type huntingtin in complex with HAP40, Q23",Effect on PARP1 autoPARylation activity,PARP1,stimulated PARP1 activity in a dose-dependent manner
same,PAR binding by fluorescence polarization,[1]; listed as HTT,"binds long (26-mer) PAR chains, in preference to shorter (11-mer) substrates"
same,PAR binding by fluorescence polarization,[1]; listed as HTT-HAP40 Q23,"lower binding than the positive control PAR-binding protein HUWE1, but higher binding than the negative control non-PAR-binding protein USP5"
Cn1ncnc1[C@H]1c2n[nH]c(=O)c3cc(F)cc(c23)N[C@@H]1c1ccc(F)cc1 [talazoparib],"PARP inhibitor IC50, HD cells compared to controls",PARP1/2,reduced IC50 in HD cells
PDD00017273,"PARG inhibitor IC50, HD compared to control cells",PARG,no difference between HD and control cells
